What was measured:
[1] = target: Fibroblast growth factor receptor 2 (Homo sapiens) (UniProt P21802); experiment: Selectivity interaction (Kinase panel (DSF assay)) EUB0001558a FGFR2
[2] = target: T1, Cyclin-dependent kinase 11A (Homo sapiens) (UniProt Q9UQ88); experiment: Selectivity interaction (KinomeScan (DiscoverX)) EUB0000092b CDK11A; conditions: at 10 µM
T1 sequence (whole entry): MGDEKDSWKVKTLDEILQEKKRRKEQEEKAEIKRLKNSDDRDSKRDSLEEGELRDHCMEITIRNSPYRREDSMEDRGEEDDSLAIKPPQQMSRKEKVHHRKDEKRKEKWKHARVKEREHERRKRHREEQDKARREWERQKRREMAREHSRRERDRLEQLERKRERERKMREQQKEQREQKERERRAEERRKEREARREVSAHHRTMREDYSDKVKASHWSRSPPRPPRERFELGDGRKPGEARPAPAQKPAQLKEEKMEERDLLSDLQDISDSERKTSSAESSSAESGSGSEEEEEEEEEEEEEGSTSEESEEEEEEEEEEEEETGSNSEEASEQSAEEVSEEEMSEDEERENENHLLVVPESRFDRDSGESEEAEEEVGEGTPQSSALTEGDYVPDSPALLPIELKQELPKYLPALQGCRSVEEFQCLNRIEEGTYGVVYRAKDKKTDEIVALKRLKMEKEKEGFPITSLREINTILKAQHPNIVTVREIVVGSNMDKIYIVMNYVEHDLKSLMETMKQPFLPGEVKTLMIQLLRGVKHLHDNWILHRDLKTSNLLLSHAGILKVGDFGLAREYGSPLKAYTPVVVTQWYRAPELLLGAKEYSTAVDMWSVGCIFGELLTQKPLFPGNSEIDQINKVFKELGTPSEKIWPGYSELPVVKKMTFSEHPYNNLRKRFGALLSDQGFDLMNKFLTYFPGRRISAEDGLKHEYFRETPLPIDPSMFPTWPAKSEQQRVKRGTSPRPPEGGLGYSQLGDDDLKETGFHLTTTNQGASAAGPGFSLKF

[3] = target: Tyrosine-protein kinase JAK1 (Homo sapiens, UniProt P23458)
[4] = target: Serine/threonine-protein kinase N1 (Homo sapiens, UniProt Q16512); experiment: Selectivity interaction (ActivX KiNativ screen (kinase selectivity in THP-1 cell lysates)) EUB0000639a PKN1; assay type: subcellular; conditions: lysate, at 0.01 µM
[5] = target: Ribosomal protein S6 kinase alpha-1 (Homo sapiens, UniProt Q15418); experiment: Selectivity interaction (KinomeScan (DiscoverX)) EUB0000045b RPS6KA1
[6] = target: Tyrosine-protein kinase JAK2 (Homo sapiens, UniProt O60674); experiment: Selectivity interaction (Antiproliferative activity against Tel-kinase transformed Ba/F3 cell line) EUB0000045b JAK2; assay type: cell-based; conditions: BaF3
[7] = target: T2, Serine/threonine-protein kinase TAO1 (Homo sapiens) (UniProt Q7L7X3); experiment: Selectivity interaction (Ambit KINOMEscan and KiNATiv profiling in Jurkat cells) EUB0000090b TAOK1; assay type: cell-based; conditions: at 1 µM
T2 sequence (whole entry): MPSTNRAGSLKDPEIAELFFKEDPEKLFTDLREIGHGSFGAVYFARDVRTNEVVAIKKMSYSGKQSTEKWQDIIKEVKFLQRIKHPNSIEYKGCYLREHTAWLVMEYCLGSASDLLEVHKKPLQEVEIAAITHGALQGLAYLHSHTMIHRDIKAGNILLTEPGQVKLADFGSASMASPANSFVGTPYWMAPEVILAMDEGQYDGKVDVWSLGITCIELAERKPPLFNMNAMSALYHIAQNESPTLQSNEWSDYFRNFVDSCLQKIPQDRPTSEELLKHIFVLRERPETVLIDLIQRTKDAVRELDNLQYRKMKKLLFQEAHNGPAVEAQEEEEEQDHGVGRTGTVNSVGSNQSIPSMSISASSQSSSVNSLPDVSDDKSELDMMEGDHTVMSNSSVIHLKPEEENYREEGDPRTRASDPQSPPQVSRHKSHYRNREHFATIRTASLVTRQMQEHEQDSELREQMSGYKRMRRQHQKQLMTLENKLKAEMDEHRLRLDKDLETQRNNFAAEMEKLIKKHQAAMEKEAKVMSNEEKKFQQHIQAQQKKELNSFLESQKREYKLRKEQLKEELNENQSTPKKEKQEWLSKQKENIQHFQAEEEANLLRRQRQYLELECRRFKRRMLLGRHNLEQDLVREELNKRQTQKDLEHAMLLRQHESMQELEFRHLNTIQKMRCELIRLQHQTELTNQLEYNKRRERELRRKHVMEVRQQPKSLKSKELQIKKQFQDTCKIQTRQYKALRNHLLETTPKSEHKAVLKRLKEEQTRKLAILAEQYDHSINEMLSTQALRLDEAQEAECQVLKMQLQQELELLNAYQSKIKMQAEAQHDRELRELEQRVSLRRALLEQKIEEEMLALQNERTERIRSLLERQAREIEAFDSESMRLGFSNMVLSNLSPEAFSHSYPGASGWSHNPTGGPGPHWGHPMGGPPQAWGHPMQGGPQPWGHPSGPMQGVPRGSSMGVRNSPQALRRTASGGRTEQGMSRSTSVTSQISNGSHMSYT

[8] = target: Tyrosine-protein kinase Fes/Fps (Homo sapiens) (UniProt P07332); experiment: Selectivity interaction (KinomeScan (DiscoverX)) EUB0001619a FES; conditions: at 1 µM
Chain of Tyrosine-protein kinase Fes/Fps (Homo sapiens) (P07332 whole entry): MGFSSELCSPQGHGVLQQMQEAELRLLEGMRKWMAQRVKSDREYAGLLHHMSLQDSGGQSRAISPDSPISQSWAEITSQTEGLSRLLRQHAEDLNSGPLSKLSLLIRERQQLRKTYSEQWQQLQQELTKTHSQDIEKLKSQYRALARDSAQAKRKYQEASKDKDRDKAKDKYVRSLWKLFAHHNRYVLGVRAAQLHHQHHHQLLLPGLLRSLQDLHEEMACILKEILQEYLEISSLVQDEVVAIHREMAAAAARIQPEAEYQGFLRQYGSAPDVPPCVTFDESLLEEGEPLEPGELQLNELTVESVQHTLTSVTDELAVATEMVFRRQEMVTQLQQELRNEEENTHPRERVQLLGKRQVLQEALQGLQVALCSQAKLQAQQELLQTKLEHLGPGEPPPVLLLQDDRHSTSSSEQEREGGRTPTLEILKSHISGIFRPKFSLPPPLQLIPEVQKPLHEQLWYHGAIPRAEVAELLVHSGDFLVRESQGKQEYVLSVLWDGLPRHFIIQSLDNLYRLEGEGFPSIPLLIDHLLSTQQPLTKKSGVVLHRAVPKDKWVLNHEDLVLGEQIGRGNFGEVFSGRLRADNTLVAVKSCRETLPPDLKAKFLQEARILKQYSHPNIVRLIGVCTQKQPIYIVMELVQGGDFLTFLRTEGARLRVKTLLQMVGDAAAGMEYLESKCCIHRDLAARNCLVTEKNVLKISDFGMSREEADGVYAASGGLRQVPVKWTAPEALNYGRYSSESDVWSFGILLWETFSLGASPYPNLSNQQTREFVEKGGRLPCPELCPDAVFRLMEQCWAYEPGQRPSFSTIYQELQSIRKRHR

Chain of Ribosomal protein S6 kinase alpha-1 (Q15418 whole entry): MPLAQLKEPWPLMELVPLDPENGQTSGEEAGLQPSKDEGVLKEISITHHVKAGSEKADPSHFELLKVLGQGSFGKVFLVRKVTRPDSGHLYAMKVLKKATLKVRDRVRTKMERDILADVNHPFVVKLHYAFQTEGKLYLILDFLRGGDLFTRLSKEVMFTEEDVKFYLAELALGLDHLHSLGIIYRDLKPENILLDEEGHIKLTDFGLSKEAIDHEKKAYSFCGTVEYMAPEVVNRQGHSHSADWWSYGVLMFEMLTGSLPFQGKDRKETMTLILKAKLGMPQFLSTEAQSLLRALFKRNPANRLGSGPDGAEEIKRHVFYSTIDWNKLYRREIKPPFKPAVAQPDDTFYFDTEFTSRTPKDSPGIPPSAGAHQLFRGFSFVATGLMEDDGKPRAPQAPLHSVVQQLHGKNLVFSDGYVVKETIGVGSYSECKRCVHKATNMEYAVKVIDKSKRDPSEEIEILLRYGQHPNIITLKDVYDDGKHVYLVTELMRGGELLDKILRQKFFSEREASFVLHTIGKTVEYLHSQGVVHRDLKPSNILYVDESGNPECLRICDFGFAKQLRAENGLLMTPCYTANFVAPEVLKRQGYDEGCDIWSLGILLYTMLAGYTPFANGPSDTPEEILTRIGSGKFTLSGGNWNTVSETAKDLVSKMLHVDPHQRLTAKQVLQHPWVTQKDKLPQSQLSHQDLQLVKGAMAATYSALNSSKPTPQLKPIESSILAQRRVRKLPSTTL
Chain of Tyrosine-protein kinase JAK2 (O60674 whole entry): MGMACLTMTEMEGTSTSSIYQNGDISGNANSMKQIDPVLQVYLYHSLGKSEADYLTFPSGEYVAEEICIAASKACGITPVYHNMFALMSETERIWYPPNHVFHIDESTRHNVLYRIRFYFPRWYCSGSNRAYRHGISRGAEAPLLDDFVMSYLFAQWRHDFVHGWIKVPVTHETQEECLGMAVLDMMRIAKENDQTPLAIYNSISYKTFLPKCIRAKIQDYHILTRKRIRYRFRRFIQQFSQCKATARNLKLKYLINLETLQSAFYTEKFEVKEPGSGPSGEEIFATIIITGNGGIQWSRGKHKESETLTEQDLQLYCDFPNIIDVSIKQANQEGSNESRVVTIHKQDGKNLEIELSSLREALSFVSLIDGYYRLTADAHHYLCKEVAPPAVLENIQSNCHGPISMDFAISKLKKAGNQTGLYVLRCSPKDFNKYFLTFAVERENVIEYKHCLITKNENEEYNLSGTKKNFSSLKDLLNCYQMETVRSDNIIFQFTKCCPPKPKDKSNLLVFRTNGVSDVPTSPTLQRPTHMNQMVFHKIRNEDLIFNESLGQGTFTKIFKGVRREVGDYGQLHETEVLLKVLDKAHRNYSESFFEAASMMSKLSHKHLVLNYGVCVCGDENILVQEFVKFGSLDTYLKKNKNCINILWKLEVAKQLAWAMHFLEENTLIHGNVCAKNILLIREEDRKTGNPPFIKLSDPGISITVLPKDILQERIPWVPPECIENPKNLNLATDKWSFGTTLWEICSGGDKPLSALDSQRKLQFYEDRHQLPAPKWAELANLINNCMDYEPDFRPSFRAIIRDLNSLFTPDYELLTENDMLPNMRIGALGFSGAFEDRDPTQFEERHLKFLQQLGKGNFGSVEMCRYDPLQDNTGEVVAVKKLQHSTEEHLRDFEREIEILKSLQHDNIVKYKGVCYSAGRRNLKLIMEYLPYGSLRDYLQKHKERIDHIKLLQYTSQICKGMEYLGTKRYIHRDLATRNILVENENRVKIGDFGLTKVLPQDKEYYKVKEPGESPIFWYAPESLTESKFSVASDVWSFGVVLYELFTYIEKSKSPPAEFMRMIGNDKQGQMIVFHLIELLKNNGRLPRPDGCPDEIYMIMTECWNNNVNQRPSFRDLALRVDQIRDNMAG
Chain of Fibroblast growth factor receptor 2 (Homo sapiens) (P21802 22-821 limits assumed): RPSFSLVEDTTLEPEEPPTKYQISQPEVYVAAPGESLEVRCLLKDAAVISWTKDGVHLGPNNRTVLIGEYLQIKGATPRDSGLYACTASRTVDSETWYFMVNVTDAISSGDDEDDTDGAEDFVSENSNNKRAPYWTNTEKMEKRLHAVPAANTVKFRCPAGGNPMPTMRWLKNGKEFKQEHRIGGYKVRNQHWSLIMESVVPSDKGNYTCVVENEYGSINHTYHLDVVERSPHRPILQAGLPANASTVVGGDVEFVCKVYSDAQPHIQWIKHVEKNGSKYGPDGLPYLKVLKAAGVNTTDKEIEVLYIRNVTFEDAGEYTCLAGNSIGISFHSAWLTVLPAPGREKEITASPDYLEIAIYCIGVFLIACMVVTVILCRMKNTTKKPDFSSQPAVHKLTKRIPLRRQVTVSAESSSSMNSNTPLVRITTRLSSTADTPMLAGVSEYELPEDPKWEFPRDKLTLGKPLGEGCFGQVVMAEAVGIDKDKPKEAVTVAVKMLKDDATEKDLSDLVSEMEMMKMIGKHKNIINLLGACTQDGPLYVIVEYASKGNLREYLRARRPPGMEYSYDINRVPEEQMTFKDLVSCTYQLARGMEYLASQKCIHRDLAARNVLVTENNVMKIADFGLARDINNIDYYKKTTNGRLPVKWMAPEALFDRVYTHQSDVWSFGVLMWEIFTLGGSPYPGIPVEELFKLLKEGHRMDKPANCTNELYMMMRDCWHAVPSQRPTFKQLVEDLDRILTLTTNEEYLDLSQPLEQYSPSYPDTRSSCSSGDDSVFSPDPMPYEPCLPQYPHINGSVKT
Chain of Tyrosine-protein kinase JAK1 (P23458 whole entry): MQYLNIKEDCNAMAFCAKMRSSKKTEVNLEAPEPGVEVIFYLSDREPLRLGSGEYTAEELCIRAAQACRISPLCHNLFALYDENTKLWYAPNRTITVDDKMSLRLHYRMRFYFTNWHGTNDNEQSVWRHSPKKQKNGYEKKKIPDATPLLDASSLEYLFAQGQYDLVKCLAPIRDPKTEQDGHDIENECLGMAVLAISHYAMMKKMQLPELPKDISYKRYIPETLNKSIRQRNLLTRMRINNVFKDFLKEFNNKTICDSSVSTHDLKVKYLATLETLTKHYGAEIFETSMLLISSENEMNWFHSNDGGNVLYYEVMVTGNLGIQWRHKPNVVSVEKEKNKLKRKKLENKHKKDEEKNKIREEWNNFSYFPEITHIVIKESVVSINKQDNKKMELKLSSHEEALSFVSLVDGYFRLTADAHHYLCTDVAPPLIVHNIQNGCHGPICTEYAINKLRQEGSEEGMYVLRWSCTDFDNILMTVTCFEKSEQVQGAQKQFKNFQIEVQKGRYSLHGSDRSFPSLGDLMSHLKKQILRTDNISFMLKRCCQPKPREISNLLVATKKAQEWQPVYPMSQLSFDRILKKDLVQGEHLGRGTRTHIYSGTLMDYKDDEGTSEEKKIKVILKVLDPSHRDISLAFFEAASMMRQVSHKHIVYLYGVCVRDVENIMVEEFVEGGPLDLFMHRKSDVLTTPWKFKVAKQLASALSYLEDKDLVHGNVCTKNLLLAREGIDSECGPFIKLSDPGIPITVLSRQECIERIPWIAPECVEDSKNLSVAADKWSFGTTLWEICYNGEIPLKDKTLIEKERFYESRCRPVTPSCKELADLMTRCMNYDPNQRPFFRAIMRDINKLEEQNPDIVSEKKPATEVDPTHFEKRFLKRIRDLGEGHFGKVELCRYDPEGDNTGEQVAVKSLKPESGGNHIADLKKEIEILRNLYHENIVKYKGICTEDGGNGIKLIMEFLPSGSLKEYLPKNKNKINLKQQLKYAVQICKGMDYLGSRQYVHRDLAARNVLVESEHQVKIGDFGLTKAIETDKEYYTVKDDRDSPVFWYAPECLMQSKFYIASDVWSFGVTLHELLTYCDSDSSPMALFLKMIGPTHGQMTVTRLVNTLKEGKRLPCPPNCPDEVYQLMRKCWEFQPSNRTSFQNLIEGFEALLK

## CC(C)(O)[C@H](F)CN1Cc2cc(NC(=O)c3cnn4cccnc34)c(N3CCOCC3)cc2C1=O
[1]
  dTM: 1 K

## CCC(=O)N1CCN(c2ccc(-n3c(=O)ccc4cnc5ccc(-c6cnc7ccccc7c6)cc5c43)cc2C(F)(F)F)CC1
[2]
  % of control: 100%

## CCc1cccc(CC)c1NC(=O)c1nn(C)c2c1CCc1cnc(Nc3ccc(C(=O)NC4CCN(C)CC4)cc3OC(F)(F)F)nc1-2
[3]
  IC50: > 10 µM

## CC[C@@H]1[C@H](F)C(=O)N[C@@H]1COc1nccc2cc(C(N)=O)c(OC)cc12 [ZIMLOVISERTIB]
[4]
  % of inhibition: -9.7%

## C=CC(=O)Nc1cc(-n2c(=O)ccc3cnc4ccc(-c5ccc(NS(C)(=O)=O)cc5)cc4c32)ccc1C
[5]; at 1 µM
  % of control: 76%
[5]; at 10 µM
  % of control: 67%
[6]
  GIC50: 5.83 µM

## CN(C)C/C=C/C(=O)Nc1ccc(C(=O)N2CCCC(Nc3ncc(Cl)c(-c4c[nH]c5ccccc45)n3)C2)cc1 (centres undefined)
[7]
  % of control: 93%

## N#Cc1cccc(-c2c[nH]c3ncnc(N4CCOCC4)c23)c1
[8]
  % of control: 100%

Source: ChEMBL document CHEMBL5465560, “Selectivity Literature for EUbOPEN Chemogenomic Library” (2024)
